Values after ≈ are worked out from the molar mass of the structure shown. Where two headings read alike, the source gives them in different places.
How the values were obtained:
S. aureus ATCC 13709 = test: MIC, S. aureus ATCC 13709 (Alamar Blue broth microdilution); assay type: cell-based; conditions: for MIC: Staphylococcus aureus, ATCC13709, S. aureus
E. coli ATCC 25922 = test: MIC, E. coli ATCC 25922; assay type: cell-based; conditions: for MIC: Escherichia coli, ATCC25922, E. coli
[1] = S. aureus, Alamar Blue read after overnight incubation at 35° C.
[2] = E. coli, Alamar Blue read after overnight incubation at 35° C.
[3] = Alamar Blue read after overnight incubation at 35° C.

CNc1cc(F)cc2c1[nH]c1nc(Oc3cnc(N4CC(C)(N)C4)nc3)nc(N3CC4C(N)C4C3)c12 (centres unmarked) [4.339]
MIC Sa (S. aureus ATCC 13709; [1]): ≤0.5 µg/mL | MIC Ec (E. coli ATCC 25922; [2]): 1 µg/mL (≈ 2.04 µM)

CNc1cc(F)cc2c1[nH]c1nc(Oc3cncc(-c4nn[nH]n4)c3)nc(N3CC4C(N)C4C3)c12 (centres unmarked) [4.224]
MIC (S. aureus ATCC 13709; [3]): 1 µg/mL (≈ 2.11 µM) | MIC (E. coli ATCC 25922; [3]): > 16 µg/mL

CNc1cccc2c1[nH]c1nc(Oc3cncnc3)nc(N3CCN(CCN)CC3)c12 [3.56]
MIC (S. aureus ATCC 13709; [3]): > 64 µg/mL | MIC (E. coli ATCC 25922; [3]): > 64 µg/mL

CNc1ncnc2c1[nH]c1nc(Oc3cncc(F)c3)nc(N3CCC4(CC4N)C3)c12 (centres unmarked) [7.07]
MIC (S. aureus ATCC 13709; [3]): 16 µg/mL (≈ 38 µM) | MIC (E. coli ATCC 25922; [3]): > 64 µg/mL

CNc1cc(F)cc2c1[nH]c1nc(Oc3cnc(C)nc3)nc(N3CC4CCNC4(C)C3)c12 (centres unmarked) [4.116]
MIC Sa (S. aureus ATCC 13709; [1]): ≤0.5 µg/mL | MIC Ec (E. coli ATCC 25922; [2]): ≤0.5 µg/mL

CNc1cc(F)cc2c1[nH]c1nc(Oc3cnc(C4CC4)nc3)nc(N3CC4CCNC4C3)c12 (centres unmarked) [4.250]
MIC Sa (S. aureus ATCC 13709; [1]): ≤0.5 µg/mL | MIC Ec (E. coli ATCC 25922; [2]): ≤0.5 µg/mL

NC1C2CN(c3nc(Sc4cnc5ccc[n+]([O-])c5c4)nc4[nH]c5c(Cl)cccc5c34)CC12 (centres unmarked) [1.3]
MIC (S. aureus ATCC 13709; [3]): 32 µg/mL (≈ 67.2 µM) | MIC (E. coli ATCC 25922; [3]): > 64 µg/mL

CNc1cc(F)cc2c1[nH]c1nc(Oc3cnc(C)nc3)nc(N3CC(N)C(F)C3)c12 (centres unmarked) [4.137]
MIC Sa (S. aureus ATCC 13709; [1]): ≤0.5 µg/mL | MIC Ec (E. coli ATCC 25922; [2]): 1 µg/mL (≈ 2.35 µM)

CNc1cc(F)cc2c1[nH]c1nc(Oc3cnc(SC)nc3)nc(N3CCC4(CC4N)C3)c12 (centres unmarked) [4.195]
MIC (S. aureus ATCC 13709; [3]): ≤ 0.5 µg/mL | MIC (E. coli ATCC 25922; [3]): 1 µg/mL (≈ 2.14 µM)

CNc1ncc(Oc2nc(N3CCC(N)C3)c3c(n2)[nH]c2c(NC)cc(F)cc23)cn1 (centres unmarked) [4.219]
MIC Sa (S. aureus ATCC 13709; [1]): ≤0.5 µg/mL | MIC Ec (E. coli ATCC 25922; [2]): ≤0.5 µg/mL

CNc1cc(F)c(F)c2c1[nH]c1nc(Oc3cncnc3)nc(N3CC4C(N)C4C3)c12 (centres unmarked) [6.19]
MIC Sa (S. aureus ATCC 13709): >16 µg/mL | MIC Ec (E. coli ATCC 25922): >16 µg/mL

CNc1cc(F)cc2c1[nH]c1nc(Oc3cnc(C)nc3)nc(N(C)C3CNC3)c12 [4.134]
MIC Sa (S. aureus ATCC 13709; [1]): >16 µg/mL | MIC Ec (E. coli ATCC 25922; [2]): >16 µg/mL

CNc1cc(F)cc2c1[nH]c1nc(Oc3cncnc3)nc(N3C4CCC3C(N)C4)c12 (centres unmarked) [4.019]
MIC (S. aureus ATCC 13709; [3]): 2 µg/mL (≈ 4.76 µM) | MIC (E. coli ATCC 25922; [3]): 16 µg/mL (≈ 38.1 µM)

CNc1cc(F)cc2c1[nH]c1nc(Oc3cnc(C(C)O)nc3)nc(C3CC4(CC[C@H]4N)C3)c12 (some centres unmarked) [4.430]
MIC (S. aureus ATCC 13709; [3]): ≤ 0.5 µg/mL | MIC (E. coli ATCC 25922; [3]): ≤ 0.5 µg/mL

CNc1cc(F)cc2c1[nH]c1nc(Oc3cnc(N)nc3)nc(N3CCC4(CC4N)C3)c12 (centres unmarked) [4.173]
MIC (S. aureus ATCC 13709; [3]): ≤ 0.5 µg/mL | MIC (E. coli ATCC 25922; [3]): 1 µg/mL (≈ 2.3 µM)

CNc1cc(F)cc2c1[nH]c1nc(Oc3cnc(C)nc3)nc(N3CC(N)C(C(=O)N4CCOCC4)C3)c12 (centres unmarked) [4.438]
MIC (S. aureus ATCC 13709; [3]): 1 µg/mL (≈ 1.92 µM) | MIC (E. coli ATCC 25922; [3]): 16 µg/mL (≈ 30.7 µM)

Cc1cc(F)cc2c1[nH]c1nc(Oc3cncnc3)nc(N3CC4C(N)C4C3)c12 (centres unmarked) [2.7]
MIC (S. aureus ATCC 13709; [3]): 4 µg/mL (≈ 10.2 µM) | MIC (E. coli ATCC 25922; [3]): > 16 µg/mL

CNc1cc(F)cc2c1[nH]c1nc(Oc3cc(O)cc4oc(=O)cc(C)c34)nc(N3CC4CC(N)C4C3)c12 (centres unmarked) [4.383]
MIC Sa (S. aureus ATCC 13709; [1]): 4 µg/mL (≈ 7.74 µM) | MIC Ec (E. coli ATCC 25922; [2]): >16 µg/mL

CNc1cc(F)cc2c1[nH]c1nc(Oc3cncnc3)nc(N3C4CCC3CC(N)C4)c12 (centres unmarked) [4.025]
MIC (S. aureus ATCC 13709; [3]): ≤ 0.5 µg/mL | MIC (E. coli ATCC 25922; [3]): 2 µg/mL (≈ 4.6 µM)

CNc1cc(F)cc2c1[nH]c1nc(Oc3cnc(C(C)C)nc3)nc(N3CC4C(N)C4C3)c12 (centres unmarked) [4.232]
MIC Sa (S. aureus ATCC 13709; [1]): ≤0.5 µg/mL | MIC Ec (E. coli ATCC 25922; [2]): ≤0.5 µg/mL

CNc1cc(C)cc2c1[nH]c1nc(Oc3cnc(C)nc3)nc(N3CC4C(N)C4C3)c12 (centres unmarked) [6.26]
MIC Sa (S. aureus ATCC 13709): ≤0.5 µg/mL | MIC Ec (E. coli ATCC 25922): 1 µg/mL (≈ 2.4 µM)

CNc1cc(F)cc2c1[nH]c1nc(Oc3cnc(SC)nc3)nc(N3CCC4(C[C@H]4N)C3)c12 (some centres unmarked) [4.203]
MIC Sa (S. aureus ATCC 13709; [1]): ≤0.5 µg/mL | MIC Ec (E. coli ATCC 25922; [2]): ≤0.5 µg/mL

CNc1cccc2c1[nH]c1nc(Sc3cnc4cccnc4c3)nc(N3CCC(C(O)c4cccs4)CC3)c12 (centres unmarked) [1.70]
MIC (S. aureus ATCC 13709; [3]): 1 µg/mL (≈ 1.81 µM) | MIC (E. coli ATCC 25922; [3]): > 32 µg/mL

CNc1cc(F)cc2c1[nH]c1nc(Oc3cnc(C4CC4)nc3)nc(N3CC4C[C@@H](N)C4C3)c12 (some centres unmarked) [4.254]
MIC (S. aureus ATCC 13709; [3]): ≤ 0.5 µg/mL | MIC (E. coli ATCC 25922; [3]): ≤ 0.5 µg/mL

CCc1ncc(Oc2nc(N3CCC4(CC4N)C3)c3c(n2)[nH]c2c(NC)cc(F)cc23)cn1 (centres unmarked) [4.263]
MIC (S. aureus ATCC 13709; [3]): ≤ 0.5 µg/mL | MIC (E. coli ATCC 25922; [3]): ≤ 0.5 µg/mL

CNc1cc(F)cc2c1[nH]c1nc(Oc3cnc(NC4CC4)nc3)nc(N3CC4C(N)C4C3)c12 (centres unmarked) [4.223]
MIC (S. aureus ATCC 13709; [3]): ≤ 0.5 µg/mL | MIC (E. coli ATCC 25922; [3]): ≤ 0.5 µg/mL

CNc1cc(F)cc2c1[nH]c1nc(Oc3ccc4cncnc4c3)nc(N3CC4[C@H](N)C[C@]4(C)C3)c12 (some centres unmarked) [4.366]
MIC (S. aureus ATCC 13709; [3]): ≤ 0.5 µg/mL | MIC (E. coli ATCC 25922; [3]): 1 µg/mL (≈ 2.06 µM)

N[C@@H]1CCN(c2nc(Sc3cnc4ccc[n+]([O-])c4c3)nc3[nH]c4c(Cl)cccc4c23)C1 [1.4]
MIC (S. aureus ATCC 13709; [3]): 32 µg/mL (≈ 69 µM) | MIC (E. coli ATCC 25922; [3]): 64 µg/mL (≈ 138 µM)

CNc1cc(Cl)cc2c1[nH]c1nc(Oc3cnc(N)nc3)nc(N3CCC4(CC4N)C3)c12 (centres unmarked) [6.15]
MIC Sa (S. aureus ATCC 13709): ≤0.5 µg/mL | MIC Ec (E. coli ATCC 25922): ≤0.5 µg/mL

CNc1cc(F)cc2c1[nH]c1nc(Oc3cnc(CC(=O)OC)nc3)nc(N3C[C@H](N)C4(CC4)C3)c12 [4.368]
MIC (S. aureus ATCC 13709; [3]): ≤ 0.5 µg/mL | MIC (E. coli ATCC 25922; [3]): ≤ 0.5 µg/mL

CNc1cc(F)cc2c1[nH]c1nc(Oc3cnc(C)nc3)nc(N3CC(C4(N)CC4)C3)c12 [4.080]
MIC Sa (S. aureus ATCC 13709; [1]): ≤0.5 µg/mL | MIC Ec (E. coli ATCC 25922; [2]): 1 µg/mL (≈ 2.3 µM)

CNc1cc(F)cc2c1[nH]c1nc(Oc3cnc(N4CCCC4=O)nc3)nc(N3C[C@H](N)C4(CC4)C3)c12 [4.346]
MIC (S. aureus ATCC 13709; [3]): ≤ 0.5 µg/mL | MIC (E. coli ATCC 25922; [3]): 4 µg/mL (≈ 7.94 µM)

CNc1cc(F)cc2c1[nH]c1nc(Oc3cnc(C#N)c(C)c3)nc(N3CC4(CC[C@H]4N)C3)c12 [4.326]
MIC (S. aureus ATCC 13709; [3]): ≤ 0.5 µg/mL | MIC (E. coli ATCC 25922; [3]): ≤ 0.5 µg/mL

CNc1cc(F)cc2c1[nH]c1nc(Oc3ccc(C#N)nc3)nc(N3CC4CCNC4C3)c12 (centres unmarked) [4.330]
MIC Sa (S. aureus ATCC 13709; [1]): ≤0.5 µg/mL | MIC Ec (E. coli ATCC 25922; [2]): ≤0.5 µg/mL

CNc1cccc2c1[nH]c1nc(Sc3cnc4cccnc4c3)nc(N3CC4CNCC4C3)c12 (centres unmarked) [1.55]
MIC (S. aureus ATCC 13709; [3]): 1 µg/mL (≈ 2.13 µM) | MIC (E. coli ATCC 25922; [3]): 8 µg/mL (≈ 17.1 µM)

CNc1cc(F)cc2c1[nH]c1nc(Sc3cnc4cccnc4c3)nc(N3CC(N)C4(CC4)C3)c12 (centres unmarked) [1.62]
MIC (S. aureus ATCC 13709; [3]): ≤ 0.5 µg/mL | MIC (E. coli ATCC 25922; [3]): ≤ 0.5 µg/mL

CNc1cc(F)c(F)c2c1[nH]c1nc(Oc3cnc(C)nc3)nc(N3CCC4(CC4N)C3)c12 (centres unmarked) [5.02]
MIC Sa (S. aureus ATCC 13709; [1]): ≤0.5 µg/mL | MIC Ec (E. coli ATCC 25922; [2]): ≤0.5 µg/mL

CNc1cc(F)cc2c1[nH]c1nc(Oc3cncc(OC)c3)nc(N3C[C@H](N)C4(CC4)C3)c12 [4.165]
MIC (S. aureus ATCC 13709; [3]): ≤ 0.5 µg/mL | MIC (E. coli ATCC 25922; [3]): 1 µg/mL (≈ 2.22 µM)

CNc1cc(F)cc2c1[nH]c1nc(Oc3cnc(C)nc3)nc(N3CC4CC(N)C4C3)c12 (centres unmarked) [4.111]
MIC Sa (S. aureus ATCC 13709; [1]): ≤0.5 µg/mL | MIC Ec (E. coli ATCC 25922; [2]): ≤0.5 µg/mL

CNc1cccc2c1[nH]c1nc(Oc3cncc(F)c3)nc(N3CC(N)C4(CC4)C3)c12 (centres unmarked) [3.50]
MIC (S. aureus ATCC 13709; [3]): ≤ 0.5 µg/mL | MIC (E. coli ATCC 25922; [3]): 2 µg/mL (≈ 4.77 µM)
